Assay results from the supplement of paper PMC10733146.

Key:
Assay in all cases: viability relative to DMSO control (fraction); higher = less drug effect (more viable cells)
Settings in all cases: 48 h
[1] = tested on: primary ALL patient cells (S088)
Outline: (§1)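 Cells were incubated for 48 h at 37 °C and 5% CO2 in RPMI-1640 with penicillin/streptomycin, L-glutamine and human serum, at 4 × 10^4 cells per well in 384-well plates with compounds pre-plated at five concentrations, one well each. These were primary mononuclear tumour cells, fresh or cryopreserved, Ficoll-isolated from blood or bone marrow or obtained from processed lymph node. Viability values are CellTiter-Glo luminescence relative to the median of 16 inner DMSO wells.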

[2] = tested on: primary AML patient cells (S002)
Outline: as §1

[3] = tested on: primary AML patient cells (S007)
Outline: as §1

[4] = tested on: primary AML patient cells (S011)
Outline: as §1

[5] = tested on: primary AML patient cells (S017)
Outline: as §1

[6] = tested on: primary AML patient cells (S019)
Outline: as §1

[7] = tested on: primary AML patient cells (S021)
Outline: as §1

[8] = tested on: primary AML patient cells (S060)
Outline: as §1

[9] = tested on: primary AML patient cells (S071)
Outline: as §1

[10] = tested on: primary AML patient cells (S081)
Outline: as §1

[11] = tested on: primary AML patient cells (S085)
Outline: as §1

[12] = tested on: primary B-PLL patient cells (S016)
Outline: as §1

[13] = tested on: primary BL patient cells (S005)
Outline: as §1

[14] = tested on: primary CLL patient cells (S043)
Outline: as §1

[15] = tested on: primary DLBCL patient cells (S049)
Outline: as §1

[16] = tested on: primary DLBCL patient cells (S076)
Outline: as §1

[17] = tested on: primary T-NHL patient cells (S058)
Outline: as §1

[18] = tested on: primary AML patient cells (S025)
Outline: as §1

Nc1cccc2c1CN(C1CCC(=O)NC1=O)C2=O (stereo not given) [Lenalidomide]
viability ([1]; 0.008 µM): 1.07 | viability ([1]; 0.04 µM): 1.05 | viability ([1]; 0.2 µM): 0.976 | viability ([1]; 1 µM): 0.933 | viability ([1]; 5 µM): 0.904 | viability ([2]; 0.008 µM): 0.904 | viability ([2]; 0.04 µM): 0.949 | viability ([2]; 0.2 µM): 0.757 | viability ([2]; 1 µM): 0.698 | viability ([2]; 5 µM): 0.713 | viability ([3]; 0.008 µM): 0.801 | viability ([3]; 0.04 µM): 0.386 | viability ([3]; 0.2 µM): 0.204 | viability ([3]; 1 µM): 0.188 | viability ([3]; 5 µM): 0.152 | viability ([4]; 0.008 µM): 0.811 | viability ([4]; 0.04 µM): 0.644 | viability ([4]; 0.2 µM): 0.488 | viability ([4]; 1 µM): 0.496 | viability ([4]; 5 µM): 0.461 | viability ([5]; 0.008 µM): 1.03 | viability ([5]; 0.04 µM): 0.976 | viability ([5]; 0.2 µM): 0.982 | viability ([5]; 1 µM): 0.963 | viability ([5]; 5 µM): 0.986 | viability ([6]; 0.008 µM): 1.07 | viability ([6]; 0.04 µM): 0.828 | viability ([6]; 0.2 µM): 0.761 | viability ([6]; 1 µM): 0.863 | viability ([6]; 5 µM): 0.71 | viability ([7]; 0.008 µM): 0.897 | viability ([7]; 0.04 µM): 0.688 | viability ([7]; 0.2 µM): 0.617 | viability ([7]; 1 µM): 0.614 | viability ([7]; 5 µM): 0.556 | viability ([8]; 0.008 µM): 1.02 | viability ([8]; 0.04 µM): 0.973 | viability ([8]; 0.2 µM): 0.992 | viability ([8]; 1 µM): 1 | viability ([8]; 5 µM): 1.01 | viability ([9]; 0.008 µM): 0.864 | viability ([9]; 0.04 µM): 0.563 | viability ([9]; 0.2 µM): 0.386 | viability ([9]; 1 µM): 0.321 | viability ([9]; 5 µM): 0.295 | viability ([10]; 0.008 µM): 1.03 | viability ([10]; 0.04 µM): 1.06 | viability ([10]; 0.2 µM): 0.999 | viability ([10]; 1 µM): 1.05 | viability ([10]; 5 µM): 1 | viability ([11]; 0.008 µM): 0.956 | viability ([11]; 0.04 µM): 0.688 | viability ([11]; 0.2 µM): 0.572 | viability ([11]; 1 µM): 0.524 | viability ([11]; 5 µM): 0.529 | viability ([12]; 0.008 µM): 1.1 | viability ([12]; 0.04 µM): 1.05 | viability ([12]; 0.2 µM): 0.883 | viability ([12]; 1 µM): 0.819 | viability ([12]; 5 µM): 0.719 | viability ([13]; 0.008 µM): 0.943 | viability ([13]; 0.04 µM): 1.29 | viability ([13]; 0.2 µM): 1.22 | viability ([13]; 1 µM): 0.897 | viability ([13]; 5 µM): 1.12 | viability ([14]; 0.008 µM): 1.1 | viability ([14]; 0.04 µM): 1.07 | viability ([14]; 0.2 µM): 1.08 | viability ([14]; 1 µM): 1.05 | viability ([14]; 5 µM): 1.05 | viability ([15]; 0.008 µM): 0.962 | viability ([15]; 0.04 µM): 1.09 | viability ([15]; 0.2 µM): 0.905 | viability ([15]; 1 µM): 0.943 | viability ([15]; 5 µM): 0.974 | viability ([16]; 0.008 µM): 0.847 | viability ([16]; 0.04 µM): 1.11 | viability ([16]; 0.2 µM): 0.749 | viability ([16]; 1 µM): 0.992 | viability ([16]; 5 µM): 1.06 | viability ([17]; 0.008 µM): 0.915 | viability ([17]; 0.04 µM): 1.17 | viability ([17]; 0.2 µM): 0.862 | viability ([17]; 1 µM): 1.14 | viability ([17]; 5 µM): 0.91

O=C(O)CSc1cc(NS(=O)(=O)c2ccc(Br)cc2)c2ccccc2c1O [UMI-77]
viability ([1]; 0.024 µM): 0.244 | viability ([1]; 0.12 µM): 0.291 | viability ([1]; 0.6 µM): 0.291 | viability ([1]; 3 µM): 0.316 | viability ([1]; 15 µM): 0.158 | viability ([2]; 0.024 µM): 0.893 | viability ([2]; 0.12 µM): 0.926 | viability ([2]; 0.6 µM): 0.948 | viability ([2]; 3 µM): 0.937 | viability ([2]; 15 µM): 1.03 | viability ([3]; 0.024 µM): 0.894 | viability ([3]; 0.12 µM): 0.94 | viability ([3]; 0.6 µM): 0.853 | viability ([3]; 3 µM): 0.973 | viability ([3]; 15 µM): 0.891 | viability ([4]; 0.024 µM): 0.457 | viability ([4]; 0.12 µM): 0.654 | viability ([4]; 0.6 µM): 0.618 | viability ([4]; 3 µM): 0.47 | viability ([4]; 15 µM): 0.227 | viability ([5]; 0.024 µM): 1.01 | viability ([5]; 0.12 µM): 1.02 | viability ([5]; 0.6 µM): 0.983 | viability ([5]; 3 µM): 0.99 | viability ([5]; 15 µM): 0.436 | viability ([6]; 0.024 µM): 1.28 | viability ([6]; 0.12 µM): 1.35 | viability ([6]; 0.6 µM): 1.17 | viability ([6]; 3 µM): 1.24 | viability ([6]; 15 µM): 0.831 | viability ([7]; 0.024 µM): 0.839 | viability ([7]; 0.12 µM): 0.917 | viability ([7]; 0.6 µM): 0.971 | viability ([7]; 3 µM): 0.961 | viability ([7]; 15 µM): 0.623 | viability ([18]; 0.024 µM): 1.06 | viability ([18]; 0.12 µM): 1.08 | viability ([18]; 0.6 µM): 1.03 | viability ([18]; 3 µM): 1.18 | viability ([18]; 15 µM): 0.46 | viability ([8]; 0.024 µM): 1.1 | viability ([8]; 0.12 µM): 1.13 | viability ([8]; 0.6 µM): 1.04 | viability ([8]; 3 µM): 1.03 | viability ([8]; 15 µM): 0.73 | viability ([9]; 0.024 µM): 0.883 | viability ([9]; 0.12 µM): 0.921 | viability ([9]; 0.6 µM): 0.879 | viability ([9]; 3 µM): 0.85 | viability ([9]; 15 µM): 0.644 | viability ([10]; 0.024 µM): 0.934 | viability ([10]; 0.12 µM): 0.984 | viability ([10]; 0.6 µM): 0.919 | viability ([10]; 3 µM): 0.812 | viability ([10]; 15 µM): 0.329 | viability ([11]; 0.024 µM): 0.887 | viability ([11]; 0.12 µM): 1.07 | viability ([11]; 0.6 µM): 0.905 | viability ([11]; 3 µM): 0.834 | viability ([11]; 15 µM): 1.53 | viability ([12]; 0.024 µM): 1.11 | viability ([12]; 0.12 µM): 1.11 | viability ([12]; 0.6 µM): 0.994 | viability ([12]; 3 µM): 1.07 | viability ([12]; 15 µM): 0.778 | viability ([13]; 0.024 µM): 0.92 | viability ([13]; 0.12 µM): 0.902 | viability ([13]; 0.6 µM): 0.783 | viability ([13]; 3 µM): 0.812 | viability ([13]; 15 µM): 0.276 | viability ([14]; 0.024 µM): 0.997 | viability ([14]; 0.12 µM): 0.981 | viability ([14]; 0.6 µM): 0.974 | viability ([14]; 3 µM): 0.979 | viability ([14]; 15 µM): 0.748
